IC50 data for 33 compounds are collected here from patent publication US8778951B2, “Heteroaryl compounds and their uses” (Novartis AG, priority 2009, dated 2014).

The term IC50 denotes the concentration at which inhibition is half-maximal. Read a high IC50 as weaker potency in that assay.

The target in this assay is Cdk9/cyclinT1 (Homo sapiens (Human), UniProt P50750). The experiment in a line: Cdk9/CyclinT1 IMAP Protocol (fluorescence polarization kinase assay). The assay is classed as biochemical. Conditions: Table 2; generated using one of the two Cdk9/cyclinT1 assays (IMAP or Alpha Screen), not specified which; unit inferred. How it is done: Cdk9/CyclinT1 IMAP Protocol
Sequence of Cdk9/cyclinT1 (P50750 whole entry): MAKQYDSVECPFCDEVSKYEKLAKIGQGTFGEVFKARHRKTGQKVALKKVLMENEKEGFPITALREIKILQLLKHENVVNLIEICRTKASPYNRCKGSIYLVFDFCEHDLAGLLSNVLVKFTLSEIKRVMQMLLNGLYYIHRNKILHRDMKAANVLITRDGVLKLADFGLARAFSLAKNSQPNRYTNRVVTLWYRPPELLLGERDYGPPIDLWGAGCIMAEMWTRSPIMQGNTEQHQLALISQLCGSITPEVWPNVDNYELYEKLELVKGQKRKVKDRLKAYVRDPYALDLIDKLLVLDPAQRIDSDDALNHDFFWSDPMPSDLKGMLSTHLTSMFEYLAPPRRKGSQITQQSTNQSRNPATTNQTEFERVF
Sequence of Cdk9/cyclinT1 (O60563 whole entry partner): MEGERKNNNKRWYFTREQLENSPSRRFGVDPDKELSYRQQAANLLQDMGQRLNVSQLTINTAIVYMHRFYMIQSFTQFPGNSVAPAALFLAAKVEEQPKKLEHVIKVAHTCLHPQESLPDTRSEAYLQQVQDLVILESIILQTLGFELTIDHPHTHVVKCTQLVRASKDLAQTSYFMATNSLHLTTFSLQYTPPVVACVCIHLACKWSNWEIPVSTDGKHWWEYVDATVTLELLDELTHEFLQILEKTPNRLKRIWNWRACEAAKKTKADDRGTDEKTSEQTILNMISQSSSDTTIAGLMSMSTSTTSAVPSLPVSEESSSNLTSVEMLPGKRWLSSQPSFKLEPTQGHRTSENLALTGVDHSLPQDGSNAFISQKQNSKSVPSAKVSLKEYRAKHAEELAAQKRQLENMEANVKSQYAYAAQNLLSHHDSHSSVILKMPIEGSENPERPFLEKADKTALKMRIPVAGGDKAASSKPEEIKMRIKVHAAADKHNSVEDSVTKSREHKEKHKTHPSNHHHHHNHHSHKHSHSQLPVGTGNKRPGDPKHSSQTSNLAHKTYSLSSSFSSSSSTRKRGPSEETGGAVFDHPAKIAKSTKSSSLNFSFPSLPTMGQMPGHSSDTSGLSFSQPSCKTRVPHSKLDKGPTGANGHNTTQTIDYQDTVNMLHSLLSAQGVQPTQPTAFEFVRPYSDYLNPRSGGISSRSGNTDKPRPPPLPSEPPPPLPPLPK
The biological activity of the compounds of the invention can be determined using the assay described below.
Cdk9/cyclinT1 is purchased from Millipore, cat #14-685. The final total protein concentration in the assay 4 nM. […] The final concentration of peptide substrate is 100 nM. The ATP substrate (Adenosine-5′-triphosphate) is purchased from Roche Diagnostics, cat#1140965. The final concentration of ATP substrate is 6 uM. IMAP (Immobilized Metal Assay for Phosphochemicals) Progressive Binding reagent is purchased from Molecular Devices, cat#R8139. Fluorescence polarization (FP) is used for detection. The 5TAMRA-cdk7tide peptide is phosphorylated by Cdk9/cyclinT1 kinase using the ATP substrate. The Phospho-5TAMRA-cdk7tide peptide substrate is bound to the IMAP Progressive Binding Reagent. The binding of the IMAP Progressive Binding Reagent changes the fluorescence polarization of the 5TAMRA-cdk7tide peptide which is measured at an excitation of 531 nm and FP emission of 595 nm. Assays are carried out in 100 mM Tris, pH=7.2, mM MgCl2, 0.05% NaN3, 0.01% Tween-20, 1 mM dithiothreitol and 2.5% dimethyl sulfoxide. IMAP Progressive Binding Reagent is diluted 1:800 in 100% 1× Solution A from Molecular Devices, cat#R7285.
General protocol is as follows: To 10 ul of cdk9/cyclinT1, 0.5 ul of test compound in dimethyl sulfoxide is added. 5TAMRA-cdk7tide and ATP are mixed. 10 ul of the 5TAMRA-cdk7tide/ATP mix is added to start the reaction. The reaction is allowed to proceed for 4.5 hrs. 60 uL of IMAP Progressive Binding Reagent is added. After >1 hr of incubation, plates are read on the Envision 2101 from Perkin-Elmer. The assay is run in a 384-well format using black Corning plates, cat#3573.
On to “3,5′-dichloro-N6-((tetrahydro-2H-pyran-4-yl)methyl)-N2′-(trans-4-(((R)-tetrahydrofuran-2-yl)methyl)aminocyclohexyl)-2,4′-bipyridine-2′,6-diamine [Compound 268]”, for which the half-maximal inhibitory concentration (IC50) was 8.14 nM.

Take `Clc1cnc(N[C@H]2CC[C@H](NC3CCOC3)CC2)cc1-c1nc(NCC2CCOCC2)ccc1Cl` (mixture of isomers) [Compound 280, 3,5′-dichloro-N6-((tetrahydro-2H-pyran-4-yl)methyl)-N2′-(trans-4-(tetrahydrofuran-3-yl-amino)cyclohexyl)-2,4′-bipyridine-2′,6-diamine]: the half-inhibitory concentration (IC50) came to 16.1 nM.

For the compound `CC1(C)C[C@H](CNc2cccc(-c3cc(N[C@H]4CC[C@H](N)CC4)ncc3Cl)n2)CCO1` (single isomer, unassigned) [Compound 256], the IC50 is 7.94 nM.

On to `CC1(C)C[C@@H](CNc2cccc(-c3cc(N[C@H]4CC[C@H](N)CC4)ncc3Cl)n2)CCO1` (single isomer, unassigned) [Compound 257], for which the IC50 stood at 7.94 nM.

Compound `C[C@H]1C[C@@H](Nc2cc(-c3cccc(NCc4cccc(F)c4)n3)c(Cl)cn2)CC[C@@H]1N` (stereo in doubt) [Compound 152] displayed an IC50 of 27 nM.

For the compound `COC[C@@H](C)N[C@H]1CC[C@H](Nc2cc(-c3nc(NCC4CCCCO4)ccc3Cl)c(Cl)cn2)CC1` (stereo in doubt) [Compound 321, 3,5′-dichloro-N2′-(trans-4-((R)-1-methoxypropan-2-yl-amino)cyclohexyl)-N6-(((S)-tetrahydro-2H-pyran-2-yl)methyl)-2,4′-bipyridine-2′,6-diamine], the midpoint of inhibition, the IC50, lay at 11 nM.

The compound `COC[C@@H](C)N[C@H]1CC[C@H](Nc2cc(-c3nc(NCC4CCCCO4)ccc3Cl)c(Cl)cn2)CC1` (stereo in doubt) [Compound 325, 3,5′-dichloro-N2′-(trans-4-((R)-1-methoxypropan-2-yl-amino)cyclohexyl)-N6-(((R)-tetrahydro-2H-pyran-2-yl)methyl)-2,4′-bipyridine-2′,6-diamine] yielded an IC50 of 10 nM.

Take `N[C@H]1CC[C@H](Nc2cc(-c3cccc(NCc4cccc(F)c4)n3)c(Cl)cn2)CC1` [Compound 1, N2′-(trans-4-aminocyclohexyl)-5′-chloro-N6-(3-fluorobenzyl)-2,4′-bipyridine-2′,6-diamine]: the IC50 was determined as 7.95 nM.

Regarding `N[C@H]1CC[C@H](Nc2cc(-c3cccc(NCC4CCCCC4)n3)ccn2)CC1` [Compound 2, N2′-(trans-4-aminocyclohexyl)-N6-(cyclohexylmethyl)-2,4′-bipyridine-2′,6-diamine], the IC50 was determined as 25.6 nM.

In turn, `N[C@H]1CC[C@H](Nc2ncc(Cl)c(-c3cccc(NCC4CCCCC4)n3)n2)CC1` [Compound 3, trans-N1-(5-chloro-4-(6-(cyclohexylmethylamino)pyridin-2-yl)pyrimidin-2-yl)cyclohexane-1,4-diamine] gave an IC50 of 238 nM.

For the compound `NC[C@H]1CC[C@H](Nc2cc(-c3cccc(NCc4cccc(F)c4)n3)c(Cl)cn2)CC1` [Compound 4, N2′-(trans-4-(aminomethyl)cyclohexyl)-5′-chloro-N6-(3-fluorobenzyl)-2,4′-bipyridine-2′,6-diamine], the half-maximal inhibitory concentration (IC50) turned out to be 9.05 nM.

The compound `Fc1cccc(CNc2cccc(-c3cc(NC4CCNCC4)ncc3Cl)n2)c1` [Compound 5, 5′-chloro-N6-(3-fluorobenzyl)-N2′-(piperidin-4-yl)-2,4′-bipyridine-2′,6-diamine] displayed a 50% inhibitory concentration (IC50) of 39.7 nM.

Regarding `CCS(=O)(=O)N1CCC(Nc2cc(-c3cccc(NCc4cccc(F)c4)n3)c(Cl)cn2)CC1` [Compound 6, 5′-chloro-N2′-(1-(ethylsulfonyl)piperidin-4-yl)-N6-(3-fluorobenzyl)-2,4′-bipyridine-2′,6-diamine], 136 nM corresponded to half-maximal inhibition (IC50).

On to `CN(C)CC(=O)N[C@H]1CC[C@H](Nc2cc(-c3cccc(NCc4cccc(F)c4)n3)c(Cl)cn2)CC1` [Compound 7, N-(trans-4-(5′-chloro-6-(3-fluorobenzylamino)-2,4′-bipyridin-2′-yl-amino)cyclohexyl)-2-(dimethylamino)acetamide], for which the IC50 was found to be 24.8 nM.

For `O[C@H]1CC[C@H](Nc2cc(-c3cccc(NC4CCNCC4)n3)c(Cl)cn2)CC1` [Compound 8, trans-4-(5′-chloro-6-(piperidin-4-yl-amino)-2,4′-bipyridin-2′-yl-amino)cyclohexanol], the IC50 is 84.8 nM.

Compound `NC[C@H]1CC[C@H](Nc2cc(-c3cccc(OCc4cccc(F)c4)n3)c(Cl)cn2)CC1` [Compound 9, N-(trans-4-(aminomethyl)cyclohexyl)-5′-chloro-6-(3-fluorobenzyloxy)-2,4′-bipyridin-2′-amine] displayed an IC50 of 7.95 nM.

The compound `Fc1cccc(CNc2cncc(-c3ccnc(N[C@H]4CC[C@H](NCc5ccccc5)CC4)c3)n2)c1` [Compound 10, trans-N1-benzyl-N4-(4-(6-(3-fluorobenzylamino)pyrazin-2-yl)pyridin-2-yl)cyclohexane-1,4-diamine] showed an IC50 of 18.6 nM.

`N[C@H]1CC[C@H](Nc2cc(-c3cc(C(F)(F)F)cc(NCc4cccc(F)c4)n3)ccn2)CC1` [Compound 11, N2′-(trans-4-aminocyclohexyl)-N6-(3-fluorobenzyl)-4-(trifluoromethyl)-2,4′-bipyridine-2′,6-diamine] came in with a concentration for half-maximal inhibition (IC50) of 133 nM.

With `N#Cc1ccc(-c2cc(N[C@H]3CC[C@H](N)CC3)ncc2Cl)nc1NCc1cccc(F)c1` [Compound 13, 2′-((1r,4r)-4-amonocyclohexylamino)-5′-chloro-6-(3-fluorobenzylamino)-2,4′-bipyridine-5-carbonitrile], it took 7.95 nM to reach half-maximal inhibition (IC50).

Compound `NC(=O)c1ccc(-c2cc(N[C@H]3CC[C@H](N)CC3)ncc2Cl)nc1NCc1cccc(F)c1` [Compound 14, 2′-((1r,4r)-4-aminocyclohexylamino)-5′-chloro-6-(3-fluorobenzylamino)-2,4′-bipyridine-5-carboxamide] showed an IC50 of 522 nM.

For `NC(=O)c1cc(NCc2cccc(F)c2)nc(-c2cc(N[C@H]3CC[C@H](N)CC3)ncc2Cl)c1` [Compound 16, 2′-(trans-4-aminocyclohexylamino)-5′-chloro-6-(3-fluorobenzylamino)-2,4′-bipyridine-4-carboxamide], the IC50 amounted to 23.6 nM.

`N[C@H]1CC[C@H](Nc2cc(-c3cc(C(=O)O)cc(NCc4cccc(F)c4)n3)c(Cl)cn2)CC1` [Compound 17, 2′-(trans-4-aminocyclohexylamino)-5′-chloro-6-(3-fluorobenzylamino)-2,4′-bipyridine-4-carboxylic acid] yielded a half-maximal inhibitory concentration (IC50) of 23.2 nM.

The compound `OCCN[C@H]1CC[C@H](Nc2cc(-c3cccc(NCc4cccc(F)c4)n3)c(Cl)cn2)CC1` [Compound 19, 2-(trans-4-(5′-chloro-6-(3-fluorobenzylamino)-2,4′-bipyridin-2′-yl-amino)cyclohexylamino)ethanol] registered a half-maximal inhibitory concentration (IC50) of 7.95 nM.

The compound `CS(=O)(=O)CCN[C@H]1CC[C@H](Nc2cc(-c3cccc(NCc4cccc(F)c4)n3)c(Cl)cn2)CC1` [Compound 20, 5′-chloro-N6-(3-fluorobenzyl)-N2′-(trans-4-(2-(methylsulfonyl)ethylamino)cyclohexyl)-2,4′-bipyridine-2′,6-diamine] gave an IC50 of 7.95 nM.

Turning to `CN[C@H]1CC[C@H](Nc2cc(-c3cccc(NCc4cccc(F)c4)n3)c(Cl)cn2)CC1` [Compound 21, 5′-chloro-N6-(3-fluorobenzyl)-N2′-(trans-4-(methylamino)cyclohexyl)-2,4′-bipyridine-2′,6-diamine], half-maximal inhibition (IC50) was put at 7.95 nM.

For the compound `CNC[C@H]1CC[C@H](Nc2cc(-c3cccc(NCc4cccc(F)c4)n3)c(Cl)cn2)CC1` [Compound 22, 5′-chloro-N6-(3-fluorobenzyl)-N2′-(trans-4-((methylamino)methyl)cyclohexyl)-2,4′-bipyridine-2′,6-diamine], the IC50 turned out to be 7.95 nM.

`Fc1cc(F)cc(CNc2cccc(-c3cc(N[C@H]4CC[C@H](N5CCCC5)CC4)ncc3Cl)n2)c1` [Compound 23, 5′-chloro-N6-(3,5-difluorobenzyl)-N2′-(trans-4-(pyrrolidin-1-yl)cyclohexyl)-2,4′-bipyridine-2′,6-diamine]: the IC50 worked out at 7.95 nM.

`N[C@H]1CC[C@H](Nc2cc(-c3cccc(NCC4CCCCC4)n3)c(Cl)cn2)CC1` [Compound 24] came in with an IC50 of 12.4 nM.

The compound `N[C@H]1CC[C@H](Nc2cc(-c3cccc(NCc4ccccc4)n3)c(Cl)cn2)CC1` [Compound 25] gave an IC50 of 8.08 nM.

On to `N[C@H]1CC[C@H](Nc2cc(-c3cccc(NCc4cccnc4)n3)c(Cl)cn2)CC1` [Compound 26], for which the IC50 amounted to 16.3 nM.

For the compound `N[C@H]1CC[C@H](Nc2cc(-c3cccc(NCc4cc(F)cc(F)c4)n3)c(Cl)cn2)CC1` [Compound 29], half-maximal inhibition (IC50) was put at 7.95 nM.

Turning to `N[C@H]1CC[C@H](Nc2cc(-c3cccc(NCc4ccccc4)n3)ccn2)CC1` [Compound 31], the IC50 stood at 44.8 nM.

Turning to `N[C@H]1CC[C@H](Nc2cc(-c3cccc(NCc4cccc(F)c4)n3)ccn2)CC1` [Compound 32], the concentration for half-maximal inhibition (IC50) was 15 nM.
